Data taken from patent US9359297B2, “Spirolactam derivatives and uses of same” (H. Lundbeck A/S, priority 2009, dated 2016).

Molecular target: T1, human metabotropic glutamate receptor 5 (hmGluR5) (Homo sapiens, UniProt P41594)
T1 construct: expressed in transfected cells
Test: Calcium mobilization (FLIPR) assay for negative allosteric modulation, EC80 glutamate, hmGluR5 in HEK 293
Assay type: cell-based
Conditions: HEK293; hmGluR5, inhibition of EC80 glutamate response; read-out: FLIPR maximum inhibition
Procedure: The cDNA for rat metabotropic glutamate receptor 5 (rmGluR5) and the cDNA for human metabotropic glutamate receptor 5 (hmGluR5) were generous gifts from S. Nakanishi (Kyoto University, Kyoto, Japan). The rmGluR5 or hmGluR5 was stably expressed in a HEK 293 cell line and grown in Dulbecco's Modified Eagle Medium (DMEM) (Invitrogen, Carlsbad, Calif.) with supplements (10% bovine calf serum, 4 mM glutamine, 100 units/mL penicillin, 100 μg/mL streptomycin and 0.75 mM G1418) at 37° C., 5% CO2. Twenty-four hours prior to assay, cells were seeded into 384-well black wall microtiter plates coated with poly-D-lysine. Just prior to assay, media was aspirated and cells dye-loaded (25 μL/well) with 3 μM Fluo-4/0.01% pluronic acid in assay buffer (Hank's Balanced Saline Solution (HBSS)): 150 mM NaCl, 5 mM KCl, 1 mM CaCl2, 1 mM MgCl2, plus 20 mM N-2-Hydroxyethylpiperazine-N′-2-ethanesulfonic acid (HEPES), pH 7.4, 0.1% bovine serum albumin (BSA) and 2.5 mM probenicid) for 1 hour in 5% CO2 at 37° C. After excess dye was discarded, cells were washed in assay buffer and layered with a final volume equal to 30 μL/well. Basal fluorescence is monitored in a fluorometric imaging plate reader (FLIPR) (Molecular Devices, Sunnyvale, Calif.) with an excitation wavelength of 488 nm and an emission range of 500 to 560 nm. Laser excitation energy was adjusted so that basal fluorescence readings were approximately 10,000 relative fluorescent units. Cells were stimulated with an EC20 or an EC80 concentration of glutamate in the presence of a compound to be tested, both diluted in assay buffer, and relative fluorescent units were measured at defined intervals (exposure=0.6 sec) over a 3 min period at room temperature. Basal readings derived from negative controls were subtracted from all samples. Maximum change in fluorescence was calculated for each well. Concentration-response curves derived from the maximum change in fluorescence were analyzed by nonlinear regression (Hill equation). A negative modulator can be identified from these concentration-response curves if a compound produces a concentration dependent inhibition of the EC80 glutamate response.

T1 sequence (P41594 21-1212): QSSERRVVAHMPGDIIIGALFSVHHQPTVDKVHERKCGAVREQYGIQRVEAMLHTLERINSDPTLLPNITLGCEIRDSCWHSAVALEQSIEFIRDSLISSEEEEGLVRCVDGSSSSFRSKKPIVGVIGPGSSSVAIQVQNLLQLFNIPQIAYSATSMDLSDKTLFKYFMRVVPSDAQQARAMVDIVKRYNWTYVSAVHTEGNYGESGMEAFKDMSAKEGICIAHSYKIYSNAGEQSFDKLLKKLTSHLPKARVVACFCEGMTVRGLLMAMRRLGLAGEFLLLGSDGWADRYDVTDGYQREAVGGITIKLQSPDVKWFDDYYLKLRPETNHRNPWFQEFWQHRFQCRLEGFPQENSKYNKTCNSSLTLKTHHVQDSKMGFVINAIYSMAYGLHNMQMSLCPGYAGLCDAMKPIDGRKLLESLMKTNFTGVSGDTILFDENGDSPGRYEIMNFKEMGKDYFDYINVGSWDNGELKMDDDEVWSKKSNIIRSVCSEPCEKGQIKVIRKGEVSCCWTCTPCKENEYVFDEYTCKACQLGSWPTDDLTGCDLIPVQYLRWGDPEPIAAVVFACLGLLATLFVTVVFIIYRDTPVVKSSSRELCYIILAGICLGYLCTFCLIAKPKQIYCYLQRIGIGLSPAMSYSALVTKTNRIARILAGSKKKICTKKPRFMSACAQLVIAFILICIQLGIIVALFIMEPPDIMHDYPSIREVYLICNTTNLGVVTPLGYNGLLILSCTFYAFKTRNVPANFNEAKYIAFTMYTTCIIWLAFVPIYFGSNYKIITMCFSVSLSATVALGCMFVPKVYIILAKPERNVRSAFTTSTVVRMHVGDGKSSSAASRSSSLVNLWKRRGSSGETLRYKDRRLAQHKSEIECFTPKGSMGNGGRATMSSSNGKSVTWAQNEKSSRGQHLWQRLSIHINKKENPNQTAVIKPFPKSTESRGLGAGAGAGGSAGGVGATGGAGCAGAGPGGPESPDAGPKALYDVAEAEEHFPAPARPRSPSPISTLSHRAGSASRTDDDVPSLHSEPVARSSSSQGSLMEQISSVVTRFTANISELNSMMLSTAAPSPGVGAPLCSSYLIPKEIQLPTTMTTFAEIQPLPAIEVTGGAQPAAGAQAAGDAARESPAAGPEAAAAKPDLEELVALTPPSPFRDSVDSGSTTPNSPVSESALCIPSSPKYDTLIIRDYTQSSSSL

Structure (SMILES) | Emax
Cc1nccc(C(=O)N[C@@H]2C[C@@H](F)C[C@@]3(CCN(c4cc(F)cc(F)c4)C3=O)C2)n1 (relative stereo) [Example 122, trans-2-Methyl-pyrimidine-4-carboxylic acid [2-(3,5-difluoro-phenyl)-9-fluoro-1-oxo-2-aza-spiro[4.5]dec-7-yl]-amide] | 47 to 93%
O=C1C[C@@H](NC(=O)c2cccc(F)c2)C[C@]2(CCN(c3cccc(F)c3)C2=O)C1 (relative stereo) [Example 123, cis-3-Fluoro-N-[2-(3-fluoro-phenyl)-1,9-dioxo-2-aza-spiro[4.5]dec-7-yl]-benzamide] | 47 to 93%
Cc1cccc(C(=O)N[C@@H]2CC(=O)C[C@@]3(CCN(c4cccc(F)c4)C3=O)C2)n1 (relative stereo) [Example 124, cis-6-Methyl-pyridine-2-carboxylic acid [2-(3-fluoro-phenyl)-1,9-dioxo-2-aza-spiro[4.5]dec-7-yl]-amide] | 47 to 93%
O=C(N[C@@H]1C[C@@H](O)C[C@@]2(CCN(c3cccc(F)c3)C2=O)C1)c1cccc(F)c1 (relative stereo) [Example 125, trans-3-Fluoro-N-[2-(3-fluoro-phenyl)-9-hydroxy-1-oxo-2-aza-spiro[4.5]dec-7-yl]-benzamide] | 47 to 93%
Cc1cccc(C(=O)N[C@@H]2C[C@@H](O)C[C@@]3(CCN(c4cccc(F)c4)C3=O)C2)n1 (relative stereo) [Example 126, trans-6-Methyl-pyridine-2-carboxylic acid [2-(3-fluoro-phenyl)-9-hydroxy-1-oxo-2-aza-spiro[4.5]dec-7-yl]-amide] | 47 to 93%
COc1cc(F)cc(N2CC[C@]3(CCC[C@H](NC(=O)c4cccc(F)c4)C3)C2=O)c1 (relative stereo) [Example 135, cis-3-Fluoro-N-[2-(3-fluoro-5-methoxy-phenyl)-1-oxo-2-aza-spiro[4.5]dec-7-yl]-benzamide] | 47 to 93%
O=C(N[C@H]1CCC[C@]2(CCN(c3cccc(F)c3)C2=O)C1)c1nccs1 (relative stereo) [Example 137, cis-Thiazole-2-carboxylic acid [2-(3-fluoro-phenyl)-1-oxo-2-aza-spiro[4.5]dec-7-yl]-amide] | 47 to 93%
O=C(N[C@H]1CCC[C@]2(CCN(c3nccs3)C2=O)C1)c1cccc(F)c1 (relative stereo) [Example 139, cis-3-Fluoro-N-(1-oxo-2-thiazol-2-yl-2-aza-spiro[4.5]dec-7-yl)-benzamide] | 47 to 93%

The next lines start with the values.

Emax | Structure (SMILES)
47 to 93% | COc1cccc(N2CC[C@]3(CCC[C@H](NC(=O)c4cccc(F)c4)C3)C2=O)c1 (relative stereo) [Example 130, cis-3-Fluoro--N-[-2-(3-methoxy-phenyl)-1-oxo-2-aza-spiro[4.5]dec-7-yl]-benzamide]
47 to 93% | O=C(N[C@H]1CCC[C@]2(CCN(c3cccc(O)c3)C2=O)C1)c1cccc(F)c1 (relative stereo) [Example 131, cis-3-Fluoro-N-[2-(3-hydroxy-phenyl)-1-oxo-2-aza-spiro[4.5]dec-7-yl]-benzamide]
47 to 93% | COc1ccc(N2CC[C@]3(CCC[C@H](NC(=O)c4cccc(F)c4)C3)C2=O)cc1 (relative stereo) [Example 133]
47 to 93% | O=C(N[C@H]1CCC[C@]2(CCN(c3cccc(CCCN4CCOCC4)c3)C2=O)C1)c1cccc(F)c1 (relative stereo) [Example 134, cis-3-Fluoro-N-{2-[3-(3-morpholin-4-yl-propyl)-phenyl]-1-oxo-2-aza-spiro[4.5]dec-7-yl}-benzamide]
47 to 93% | O=C(N[C@H]1CCC[C@]2(CCN(c3cccc(OCC(=O)N4CCCC4)c3)C2=O)C1)c1cccc(F)c1 (relative stereo) [Example 136, cis-3-Fluoro-N-{1-oxo-2-[3-(2-oxo-2-pyrrolidin-1-yl-ethoxy)-phenyl]-2-aza-spiro[4.5]dec-7-yl}-benzamide]
47 to 93% | CN(C)c1ccc(N2CC[C@]3(CCC[C@H](NC(=O)c4cccc(F)c4)C3)C2=O)cc1 (relative stereo) [Example 138, cis-N-[2-(4-Dimethylamino-phenyl)-1-oxo-2-aza-spiro[4.5]dec-7-yl]-3-fluoro-benzamide]
